Test results from BigSolDB 2.1.

Nc1ccc(Cl)nn1
Details | solubility (mole fraction)
in DMF, 298.45 K | 0.0353
in DMF, 303.35 K | 0.0401
in DMF, 308.15 K | 0.0455
in DMF, 313.35 K | 0.0522
in DMF, 318.15 K | 0.0592
in DMF, 323.25 K | 0.0647
in DMF, 328.35 K | 0.0705
in DMF, 333.45 K | 0.0768
in DMF, 337.95 K | 0.083
in DMF, 343.05 K | 0.0904
in acetone, 298.15 K | 0.00338
in acetone, 303.15 K | 0.00423
in acetone, 308.15 K | 0.00513
in acetone, 313.25 K | 0.00597
in acetone, 318.15 K | 0.00682
in acetone, 323.15 K | 0.00791
in acetone, 328.15 K | 0.00871
in cyclohexanone, 298.25 K | 0.00455
in cyclohexanone, 303.25 K | 0.0053
in cyclohexanone, 308.15 K | 0.00643
in cyclohexanone, 313.15 K | 0.00782
in cyclohexanone, 318.25 K | 0.00889
in cyclohexanone, 323.05 K | 0.0107
in cyclohexanone, 328.15 K | 0.0125
in cyclohexanone, 333.15 K | 0.015
in cyclohexanone, 338.25 K | 0.0174
in cyclohexanone, 343.15 K | 0.02
in ethanol, 298.15 K | 0.00206
in ethanol, 303.25 K | 0.00271
in ethanol, 308.15 K | 0.00318
in ethanol, 313.15 K | 0.00405
in ethanol, 318.15 K | 0.005
in ethanol, 323.15 K | 0.006
in ethanol, 328.15 K | 0.00702
in ethanol, 333.15 K | 0.00848
in ethanol, 338.15 K | 0.00994
in ethanol, 342.85 K | 0.0113
in ethyl acetate, 298.45 K | 0.00133
in ethyl acetate, 303.35 K | 0.00166
in ethyl acetate, 308.15 K | 0.00194
in ethyl acetate, 313.15 K | 0.00227
in ethyl acetate, 318.25 K | 0.00263
in ethyl acetate, 323.25 K | 0.00319
in ethyl acetate, 328.15 K | 0.00358
in ethyl acetate, 333.15 K | 0.00413
in ethyl acetate, 338.35 K | 0.00479
in ethyl acetate, 343.15 K | 0.0053
in methanol, 298.15 K | 0.00388
in methanol, 303.35 K | 0.00444
in methanol, 308.05 K | 0.00525
in methanol, 313.15 K | 0.00605
in methanol, 318.15 K | 0.00721
in methanol, 322.95 K | 0.00824
in methanol, 328.55 K | 0.00936
in methanol, 332.45 K | 0.0107
in n-butanol, 296.55 K | 0.00171
in n-butanol, 302.95 K | 0.00224
in n-butanol, 309.85 K | 0.00315
in n-butanol, 313.05 K | 0.00357
in n-butanol, 318.25 K | 0.00428
in n-butanol, 322.95 K | 0.00498
in n-butanol, 328.15 K | 0.00629
in n-butanol, 333.45 K | 0.00741
in n-butanol, 338.35 K | 0.00871
in n-butanol, 343.15 K | 0.0102
in toluene, 298.15 K | 5.02e-05
in toluene, 303.25 K | 6.73e-05
in toluene, 308.15 K | 8.17e-05
in toluene, 313.35 K | 0.000116
in toluene, 318.15 K | 0.000155
in toluene, 323.25 K | 0.000202
in toluene, 328.35 K | 0.00025
in toluene, 333.15 K | 0.000293
in toluene, 338.35 K | 0.000352
in toluene, 343.55 K | 0.000454
